In one series the target is T1, FAAH-1 (Homo sapiens, UniProt O00519).
T1 construct: expressed in transfected cells; host or cells: COS-7
T1 sequence (O00519 1-579): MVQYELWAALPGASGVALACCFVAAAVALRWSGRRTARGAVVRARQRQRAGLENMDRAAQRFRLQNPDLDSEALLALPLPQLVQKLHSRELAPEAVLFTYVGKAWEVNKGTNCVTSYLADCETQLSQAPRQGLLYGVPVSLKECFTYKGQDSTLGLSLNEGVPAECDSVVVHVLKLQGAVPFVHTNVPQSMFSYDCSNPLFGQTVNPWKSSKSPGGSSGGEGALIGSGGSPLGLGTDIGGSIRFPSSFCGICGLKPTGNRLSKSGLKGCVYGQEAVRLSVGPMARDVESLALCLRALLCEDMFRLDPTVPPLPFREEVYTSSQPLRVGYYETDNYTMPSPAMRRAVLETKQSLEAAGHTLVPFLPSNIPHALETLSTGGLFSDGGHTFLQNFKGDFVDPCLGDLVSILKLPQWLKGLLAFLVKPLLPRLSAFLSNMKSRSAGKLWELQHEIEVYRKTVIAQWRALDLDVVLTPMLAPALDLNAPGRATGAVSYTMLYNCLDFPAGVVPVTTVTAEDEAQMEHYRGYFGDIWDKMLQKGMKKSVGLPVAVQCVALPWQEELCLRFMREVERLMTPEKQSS
The experiment in a line: Hydrolysis in homogenate of COS-7 cells overexpressed with FAAH-1. It is filed as biochemical. The note with it: 5 μM. As for the experimental part: Hydrolysis experiments using COS-7 cells overexpressed with either FAAH-1 or FAAH-2. […] The next day, cells were transfected, in duplicate, with 10 μg Vector control, flag-FAAH-1 or flag-FAAH-2 plasmids using Lipofectamine 2000 (Invitrogen) according to the manufacturer's protocol. 24 hours post transfection, cells were washed 1× in cold PBS, aspirated dry, and then scraped off the plate in the presence of 0.6 mL reaction buffer (50 mM HEPES, pH 9.0; 1 mM EDTA). Cells were then homogenated using a VWR VDI 12 Adaptable Homogenizer, on ice for 1 minute, and the sample was then clarified by centrifugation at 6,000 g for 5 minutes. The supernatant of this homogenated fraction was then used for FAAH hydrolysis assays. […] Gel densitometry was performed and the % FAAH extracted in each successive lysis conditions was determined according to standard procedures.
The following hydrolysis experiments were performed using COS-7 cells containing overexpressed FAAH-1 or FAAH-2. […] Briefly, the hydrolysis experiments were carried out in Eppendorf tubes using procedures similar to the one described above. […] At time=0, 1, and 3 h, the protein was precipitated with acetonitrile.

A further series relates to NFκB. The experiment in a line: NFκB-driven luciferase reporter assay in LPS-challenged RAW 264.7 macrophages. Format: cell-based. To be noted: Mus musculus, RAW264.7; RAW 264.7, LPS 200 ng/mL; linked bioactive; read-out: IC50 in an NFkB assay. As for the experimental part:
RAW 264.7 cells transfected with an NFκB-driven luciferase reporter were plated in 96 well plates. Cells were treated with Vehicle (0.1% ethanol) or test compounds for 2 hours. As a positive control for inhibition of NFκB signaling, 6 wells were treated with […]. Cells were then challenged with 200 ng/mL LPS for 3 hours in the presence of test compounds. A subset of wells treated with vehicle remained unstimulated with LPS to determine the floor signal of the assay. NFκB driven luciferase activity was developed by addition of BriteLite luciferase kit (PERKIN ELMER®) and measured using a Victor V plate reader. NFκB activity (luciferase activity) for each treatment was normalized to Vehicle wells treated with LPS (% NFκB Response).
For orientation: In a reporter assay the amount or activity of a reporter protein is the signal.

The test system of series [1] is ApoB secretion in HepG2 cells. The experiment in a line: ApoB secretion in HepG2 cells (oleate stimulated, ELISA). Format: cell-based. To be noted: Homo sapiens, linked bioactive. The method, then:
HcpG2 cells (ATCC) were seeded at 10,000 cells per well in 96 well plates. After adhering overnight, growth media (10% FBS in DMEM) was removed and cells were serum starved for 24 hours in DMEM containing 0.1% fatty acid free bovine serum albumin (BSA, SIGMA®). Cells were then treated with the compounds. Niacin at 5 mM was used as a positive control. All treatments were performed in triplicate. Simultaneous with compound treatment, ApoB secretion was stimulated with the addition of […] complexed to fatty acid free BSA in a 5:1 molar ratio. Incubation with compounds and oleate was conducted for 24 hours. Media supernatants were removed and ApoB concentrations were measured using ELISA kits (MABTECH AB®). Percent inhibition of ApoB secretion was determined by normalizing data to vehicle treated wells. For a given compound, an IC50 (concentration at which 50% of ApoB secretion is inhibited) can also be determined by using a 4 parameter-fit inhibition curve model (GRAPH PAD PRISM®). In each experiment, cell viability was determined using the ATPlite 1-Step kit (PERKIN ELMER®), such that compound effects due to cytotoxicity could be monitored.
(In general: An ELISA detects its analyte on a solid surface through an enzyme-linked reagent.)

A short description of series [2]: Rat liver lysate hydrolysis assay (FAAH and thiol reductase promoted cleavage). It is filed as in vitro ADME. The method, then:
The rat liver lysate hydrolysis experiment was performed in Eppendorf tubes, by adding the necessary amount of water for the assay first. A 10× buffer solution with final concentrations of HEPES and EDTA of 50 mM and 1 mM respectively was prepared from 500 mM HEPES and 10 mM EDTA in water. Rat liver lysate was removed from −80° C. storage, thawed and centrifuged at 4000 g for 5 min. A volume of the supernatant was transferred to the Eppendorf tube yielding a final concentration in the assay of 3 mg/mL rat liver lysate. The tube was gently inverted to mix the components. The reactions are then place in a 37° C. incubator for 20 min allowing the reaction mixture to reach 37° C. before the reaction was initiated.
To initiate the hydrolysis reaction, the samples were removed from the incubator and the compounds of the invention were added, as a DMSO solution, prepared in a manner to allow for <1% final DMSO concentration and 5 μM final compound concentration. […]
This rat liver lysate hydrolysis assay was used to assess the hydrolysis of bis-fatty acid linked bioactives into individual components. As an illustrative example, the bis-fatty acid cystamine linked bioactive VI-7 was assessed in this rat liver lysate assay. […] The amount of cysteamine that was formed could be quantitated by LC-MS/MS by carrying out an initial derivatization with Ellman's reagent. […] 50 μl of the tissue lysate reaction mixture was transferred to a 1.5 mL eppendorf tube and derivatization of cysteamine was performed with 50 μl 10 mM Ellman's reagent (5,5′ dithio-bis(2-nitrobenzoic acid). Samples were incubated at room temperature for 10 minutes, vortex for 1 minute followed by protein precipitation by addition of 300 μl of acetonitrile containing IS and 0.2% butylated hydroxyanisole (BHA). Supernatant was transferred to a clean LC vial and 10 μl of the sample was injected on LC-MS/MS for the measurement of cysteamine. The concentration of cysteamine was measured by LC-MS/MS. […]

Broadly, the IC50 is the midpoint of a concentration-inhibition curve. Turning to `CC/C=C\C/C=C\C/C=C\C/C=C\C/C=C\C/C=C\CCC(=O)NCCNC(=O)c1ccccc1O` [Compound I-1, N-(2-(4Z,7Z,10Z,13Z,16Z,19Z)-docosa-4,7,10,13,16,19-hexaenamidoethyl)-2-hydroxybenzamide], the “hydrolysis (disappearance of compound) in COS-7 cells overexpressed with FAAH-1” value at FAAH-1 (FIG. 9A, absence of any inhibitor, 0-3 h) is reported as “significant hydrolysis”. Besides, the “appearance of DHA from compound, FAAH-1” value on FAAH-1 (FIG. 9C, no inhibitor) is “time dependent formation of DHA”. Moreover, the IC50 in the series on NFκB was in the range of 30 to 35 µM. `CC/C=C\C/C=C\C/C=C\C/C=C\C/C=C\CCCC(=O)NCCNC(=O)c1cccnc1` [III-1, N-(2-(5Z,8Z,11Z,14Z,17Z)-icosa-5,8,11,14,17-pentaenamidoethyl)nicotinamide]: the IC50 in series [1] came out at 50 µM. The same measure, in the same setting: the result for `CC/C=C\C/C=C\C/C=C\C/C=C\C/C=C\C/C=C\CCC(=O)NCCNC(=O)c1cccnc1` [III-2, N-(2-(4Z,7Z,10Z,13Z,16Z,19Z)-docosa-4,7,10,13,16,19-hexaenamidoethyl)nicotinamide] reads 50 µM. In the case of `CC/C=C\C/C=C\C/C=C\C/C=C\C/C=C\C/C=C\CCC(=O)NCCNC(=O)/C=C/C(=O)OC` [IV-1, (E)-methyl 4-(2-(4Z,7Z,10Z,13Z,16Z,19Z)-docosa-4,7,10,13,16,19-hexaenamidoethylamino)-4-oxobut-2-enoate], the IC50 in the series with NFκB came out at 16 µM.

`CC/C=C\C/C=C\C/C=C\C/C=C\C/C=C\C/C=C\CCC(=O)N1CCN(C(=O)CCC/C=C\C/C=C\C/C=C\C/C=C\C/C=C\CC)CC1` [VI-1, (4Z,7Z,10Z,13Z,16Z,19Z)-1-[4-((5Z,8Z,11Z,14Z,17Z)-icosa-5,8,11,14,17-pentaenoyl)-piperazin-1-yl]-docosa-4,7,10,13,16,19-hexaen-1-one] registered an IC50 in series [1] of 10 µM. Turning to `CC/C=C\C/C=C\C/C=C\C/C=C\C/C=C\C/C=C\CCC(=O)NCCNC(=O)CCC/C=C\C/C=C\C/C=C\C/C=C\C/C=C\CC` [VI-5, (4Z,7Z,10Z,13Z,16Z,19Z)-docosa-4,7,10,13,16,19-hexaenoic acid [2-((5Z,8Z,11Z,14Z,17Z)-icosa-5,8,11,14,17-pentaenoylamino)-ethyl]-amide], the IC50 in the series with NFκB came to 63 µM. Still for that read-out and setting: the result for `CC/C=C\C/C=C\C/C=C\C/C=C\C/C=C\C/C=C\CCC(=O)NCCNC(=O)CC/C=C\C/C=C\C/C=C\C/C=C\C/C=C\C/C=C\CC` [VI-6, (4Z,7Z,10Z,13Z,16Z,19Z)-docosa-4,7,10,13,16,19-hexaenoic acid [2-((4Z,7Z,10Z,13Z,16Z,19Z)-docosa-4,7,10,13,16,19-hexaenoylamino)-ethyl]-amide] reads 68 µM. For `CC/C=C\C/C=C\C/C=C\C/C=C\C/C=C\C/C=C\CCC(=O)NCCSSCCNC(=O)CCC/C=C\C/C=C\C/C=C\C/C=C\C/C=C\CC` [VI-7, (4Z,7Z,10Z,13Z,16Z,19Z)-docosa-4,7,10,13,16,19-hexaenoic acid {2-[2-((5Z,8Z,11Z,14Z,17Z)-icosa-5,8,11,14,17-pentaenoylamino)-ethyldisulfanyl]-ethyl}-amide], the “hydrolysis in rat liver lysate” value in series [2] (FIG. 7A, 5 μM compound, 3 mg/mL rat liver lysate, 37° C.) is reported as “time-dependent hydrolysis”. For the same compound, the “formation of cysteamine in rat liver lysate” value in series [2] (FIG. 7B, absence of the FAAH inhibitor PF-3845) was “time dependent formation of cysteamine”.

Values taken from patent US20140315786A1, “USE OF INTRACELLULAR ENZYMES FOR THE RELEASE OF COVALENTLY LINKED BIOACTIVES” (Catabasis Pharmaceuticals, Inc., priority 2011, published 2014).
